According to US20040023884A1, “Biologically active peptides from functional domains of bactericidal/permeability-increasing protein and uses thereof” (priority 1993, published 2004):
Ends that are not written are not given here.

How the values were obtained:
[1] = system: C. albicans; experiment: Radial diffusion fungicidal assay, Candida albicans; format: cell-based; conditions: radial diffusion
[2] = system: E. coli strain 07-K1; experiment: Radial diffusion bactericidal assay, E. coli 07-K1; format: cell-based; conditions: FIG. 10c
Description: BPI proteolytic fragments produced according to Example 1 were screened for bactericidal effects using rough mutant E. coli J5 bacteria in a radial diffusion assay. Specifically, an overnight culture of E. coli J5 was diluted 1:50 into fresh tryptic soy broth and incubated for 3 hours at 37° C. to attain log phase growth of the culture. Bacteria were then pelleted at 3,000 rpm for 5 minutes in a Sorvall RT6000B centrifuge (Sorvall Instruments, Newton, Conn.). 5 mL of 10 mM sodium phosphate buffer (pH 7.4) was added and the preparation was re-pelleted. […] The bacteria were diluted to 4×10^6 CFU/mL in 10 mL of molten underlayer agarose (at approximately 45° C.) and inverted repeatedly to mix in 15 mL polypropylene tubes conventionally used for this purpose.
The entire contents of such tubes were then poured into a level square petri dish and distributed evenly by rocking the dish side-to-side. […] A series of wells were then punched into the hardened agarose using a sterile 3 mm punch attached to a vacuum apparatus. The punch was sterilized with 100% alcohol and allowed to air dry prior to use to avoid contaminating the bacterial culture.
5 or 10 μL of each of the BPI fragments were carefully pipetted into each well. As a negative control, dilution buffer (pH 8.3) was added to a separate well, and rBPI23 at concentrations of 5 μg/mL and 1 μg/mL were also added as positive controls. Each plate was incubated at 37° C. for 3 hours, and then 10 mL of molten overlayer agarose (at approximately 45° C.) was added into the level petri dish, allowed to harden and incubated overnight at 37° C. […] The bacterial zones were measured with a micrometer.
Additional experiments were performed using various other bacteria as target cells to examine the range of bactericidal killing of these BPI functional domain peptides.

[3] = system: Candida albicans; format: cell-based; conditions: broth assay, FIGS. 11p and 11q
Description: In additional experiments, broth antibacterial assays were conducted to further determine the bactericidal activity of certain of the BPI peptides. Specifically, either E. coli J5 (rough) or E. coli 0111:B4 (smooth) bacteria were selected from single colonies on agar plates and used to inoculate 5 mL of Mueller Hinton broth and incubated overnight at 37° C. with shaking. The overnight culture was diluted (˜1:50) into 5 mL fresh broth and incubated at 37° C. to log phase (˜3 hours). Bacteria were pelleted for 5 minutes at 3000 rpm (1500×g). Bacterial pellets were resuspended in 5 mL PBS and diluted to 2×10^6 cells/mL in the Mueller Hinton broth (wherein 1 OD570 unit equals 1.25×10^9 CFU/mL). The BPI functional domain peptides to be tested were diluted to 200 μg/mL in broth and serially diluted 2-fold in 96 well culture plates (100 μL volume). All items were at 2-fold final concentration and experiments were conducted in triplicate. Bacteria were added at 100 μL/well and the plates were incubated on a shaker at 37° C. for a 20 hour period. The plates were then read on an ELISA plate multiple reader at 590 nm. One of the triplicate wells from each peptide concentration was selected for colony forming unit (CFU) determination. A 30 μL aliquot was added to 270 μL of PBS and further ten-fold serial dilutions were performed. Then a 50 μL aliquot was plated on tryptic soy agar and incubated overnight. Colonies were counted and final bacterial concentrations determined. The results of these assays are depicted in FIGS. 9e (for E. coli J5) and 9f (for E. coli 0111:B4).
In light of the results of the experiments disclosed in Example 15, the bactericidal activity of domain II-domain III combination peptides were compared with the bactericidal activity of each of the component BPI domain II and domain III peptides, against a number of different bacteria and other microorganisms. The following BPI functional domain peptides as described above were used in radial diffusion bactericidal assays (Example 2) and broth bactericidal assays (Example 13) essentially as described in Example 15 above. These Figures show results of bactericidal assays using the following bacterial strains: […]

[4] = system: LPS-stimulated NO production by RAW 264.7 cells; experiment: LPS-stimulated NO production by RAW 264.7 cells; format: cell-based, mouse; conditions: for IC50 NO assay: LPS-stimulated NO production by RAW 264.7 cells
Description: An additional LPS neutralization screening assay for BPI functional domain peptides was developed using an assay for NO production in mouse cells treated with LPS (see Lorsbach et al., 1993, J. Biol. Chem. 268: 1908-1913). In this assay, mouse RAW 264.7 cells (ATCC Accession No. TIB71) were treated with bacterial LPS. The cells were incubated in 96-well plates and stimulated for 2 hours with E. coli 0113 LPS or zymosan, in the presence or absence of _-interferon, rLBP, fetal bovine serum (FBS) or normal human serum (NHS), or rBPI21Δcys. After this incubation, the cells were washed with fresh media and incubated overnight in media containing 10% FCS. The NO released from the cells accumulated in the media and spontaneously converted to nitrite. This nitrite was assayed in situ by the Griess reaction, as follows. The nitrite was reacted with the primary amine of an added sulfanilamide and formed a diazonium salt. This salt was then reacted with added naphthylethylenediamine to form a red azo-dyc. The Griess reaction was performed at room temperature in about 10 minutes. The amount of produced NO was estimated from a standard curve of Griess reaction products determined spectrophotometrically as Absorbance at a wavelength of 550 nm.

[5] = system: E. coli 0113 LPS; experiment: Limulus Amoebocyte Lysate (LAL) inhibition assay; format: biochemical
In short: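 BPI proteolytic fragments incubated with E. coli 0113 LPS (4 ng/mL final) for 3 h at 37 °C, then diluted in D-PBS to 200 pg/mL LPS for chromogenic LAL. Lysate 25 min, substrate 20–30 min at room temperature, acetic acid stop; OD405 expressed as percent LPS inhibition.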

Substance | C. albicans: pmol required for 30 mm^2 zone [1] [pmol] | bactericidal activity (in words) [2] | fungicidal activity (in words) [3] | inhibition of LPS-stimulated NO production (in words) [4] | IC50 NO assay [4] | LAL / LPS inhibition activity (in words) [5]
KSKVGWLIQLFHKKKSKVGWLIQLFHKK-NH2 (C-terminus assumed) [BPI.29] | >1469.25 | moderate bactericidal activity | much lower activity levels | detectable levels of LPS neutralization | 2.4 µg/mL | –
IKISGKWKAQKRFLK [BPI.2] | – | – | much lower activity levels | – | – | no significant LPS inhibition activity
KWKAQKRFLKKSKVGWLIQLFHKK-NH2 (C-terminus assumed) [BPI.30] | >1653.50 | high levels of bactericidal activity | much lower activity levels | detectable levels of LPS neutralization | – | –
KSKVGWLIQLFHKK-NH2 (C-terminus assumed) [BPI.13] | 221.63 | low levels of bactericidal activity | found to have fungicidal activity | detectable levels of LPS neutralization | 16 µg/mL | –
NVGLKFSISNANIKISGKWKAQKRFLK [BPI.3] | – | – | – | detectable levels of LPS neutralization | – | moderate LPS inhibition activity
KWKAQKRFLKKWKAQKRFLK-NH2 (C-terminus assumed) [BPI.7] | – | high levels of bactericidal activity | – | – | Not Inhibitory | significant LPS inhibition properties
KWKAAARFLKKWKAAARFLK [BPI.48] | – | – | much lower activity levels | – | – | –
